The numbers were not newly measured in patent US20150267258A1, “BIOMARKERS FOR DETERMINING EFFECTIVE RESPONSE OF TREATMENTS OF HEPATOCELLULAR CARCINOMA (HCC) PATIENTS” (BAYER PHARMA AKTIENGESELLSCHAFT, priority 2012, published 2015), which cites them from elsewhere.

Each structure is given as a SMILES string.

In data set [1] the test system is metastatic colorectal cancer. Conditions: patients with metastatic colorectal cancer.

`CNC(=O)c1cc(Oc2ccc(NC(=O)Nc3ccc(Cl)c(C(F)(F)F)c3)c(F)c2)ccn1` [Regorafenib, 4-[4-({[4-Chloro-3-(trifluoromethyl)phenyl]carbamoyl}amino)-3-fluorophenoxy]-N-methylpyridine-2-carboxamide]: the Overall survival result in data set [1] was “increase the overall survival”.

In the case of `CNC(=O)c1cc(Oc2ccc(NC(=O)Nc3ccc(Cl)c(C(F)(F)F)c3)cc2)ccn1` [Sorafenib, 4-[4-[[4-chloro-3-(trifluoromethyl)phenyl]carbamoylamino]phenoxy]-N-methyl-pyridine-2-carboxamide], the “Effectiveness in lung cancer” value with lung cancer is listed as “effective in lung cancer”.
